Consider 16 compounds from US20260008787A1, “FUSED RING KRAS INHIBITORS FOR TREATING DISEASE” (BLOSSOMHILL THERAPEUTICS, INC., priority 2022, published 2026).

Broadly, the IC50 is the concentration that gives 50% inhibition. A higher IC50 goes with lower potency.

Format in all cases: cell-based
Conditions in all cases: 384-well, CellTiter-Glo 2.0
On the technique in general: Cellular ATP, detected with luciferase, serves as a proxy for viable cell number.

In one experiment the test system is GP2D (KRAS G12D). Description: Cell proliferation assay (CellTiter-Glo, 72 hours), GP2D. The procedure: (§1) Two thousand KRAS mutant cells per well were seeded in 384-well white plate and then treated with indicated compounds for 72 hours at 37° C. and 5% CO2. Cell proliferation was measured using CellTiter-Glo 2.0 luciferase-based ATP detection assay (Promega, Madison, WI) following the manufacturer's protocol. IC50 values were determined using Prism software (GraphPad Software, San Diego, CA).

The next experiment relates to SW620 (KRAS G12V). Description: Cell proliferation assay (CellTiter-Glo, 72 hours), SW620. The procedure: as §1
In another experiment the test system is AGS (G12D). As to the kind of experiment: Cell proliferation assay (CellTiter-Glo, 72 hours), AGS. The procedure: as §1

`C#Cc1c(F)ccc2cc(O)cc(-c3nc4c5c(nc(OC[C@@]67CCCN6C[C@H](F)C7)nc5c3F)N3CCOC[C@H]3CO4)c12` [Example 58, 5-ethynyl-6-fluoro-4-[(8aS)-4-fluoro-2-{[(2R,7aS)-2-fluorotetrahydro-1H-pyrrolizin-7a(5H)-yl]methoxy}-8a,9,11,12-tetrahydro-8H-7,10-dioxa-1,3,6,12a-tetraazabenzo[4,5]cyclohepta[1,2,3-de]naphthalen-5-yl]naphthalen-2-ol]: the IC50 stood at 36.7 nM with GP2D (KRAS G12D) (GP2d, 72 h); 43.1 nM in the experiment with SW620 (KRAS G12V) (Homo sapiens, SW-620, 72 h); 59.4 nM in the experiment on AGS (G12D) (72 h).

In the case of `C#Cc1c(F)ccc2cc(O)cc(-c3nc4c5c(nc(OC[C@@]67CCCN6C/C(=C\F)C7)nc5c3F)N3CCCC[C@H]3CO4)c12` [Example 76, 5-ethynyl-6-fluoro-4-[(8aS)-4-fluoro-2-{[(2Z,7aS)-2-(fluoromethylidene)tetrahydro-1H-pyrrolizin-7a(5H)-yl]methoxy}-8,8a,9,10,11,12-hexahydro-7-oxa-1,3,6,12a-tetraazabenzo[4,5]cyclohepta[1,2,3-de]naphthalen-5-yl]naphthalen-2-ol], the IC50 in the experiment on GP2D (KRAS G12D) was found to be 3.35 nM; in the experiment with SW620 (KRAS G12V), 11.6 nM; in the experiment with AGS (G12D), 12.3 nM.

Take `C#Cc1c(F)ccc2cc(O)cc(-c3nc4c5c(nc(OC[C@@]67CCC[N+]6(C)C[C@H](F)C7)nc5c3F)N[C@@H](C)CO4)c12` (stereo partly drawn) [Example 77, (2R,7aS)-7a-({[(9S)-5-(8-ethynyl-7-fluoro-3-hydroxynaphthalen-1-yl)-4-fluoro-9-methyl-9,10-dihydro-8H-7-oxa-1,3,6,10-tetraazacyclohepta[1,2,3-de]naphthalen-2-yl]oxy}methyl)-2-fluoro-4-methylhexahydro-1H-pyrrolizin-4-ium]: the half-inhibitory concentration (IC50) is 1350 nM in the experiment on GP2D (KRAS G12D) (GP2d, 72 h); more than 3000 nM in the experiment with SW620 (KRAS G12V) (Homo sapiens, SW-620, 72 h); more than 3000 nM in the experiment on AGS (G12D) (72 h).

With `C#Cc1c(F)ccc2cc(O)cc(-c3nc4c5c(nc(OC[C@@]67CCCN6C[C@H](F)C7)nc5c3F)N(Cc3ccccc3)[C@@H](CO)CO4)c12` [Example 80, 4-[(9S)-10-benzyl-4-fluoro-2-{[(2R,7aS)-2-fluorotetrahydro-1H-pyrrolizin-7a(5H)-yl]methoxy}-9-(hydroxymethyl)-9,10-dihydro-8H-7-oxa-1,3,6,10-tetraazacyclohepta[1,2,3-de]naphthalen-5-yl]-5-ethynyl-6-fluoronaphthalen-2-ol], the IC50 in the experiment on GP2D (KRAS G12D) (GP2d, 72 h) is more than 3000 nM; with SW620 (KRAS G12V) (Homo sapiens, SW-620, 72 h), more than 3000 nM; in the experiment with AGS (G12D) (72 h), more than 3000 nM.

In the case of `C#Cc1c(F)ccc2cc(O)cc(-c3nc4c5c(nc(OC[C@@]67CCCN6C[C@H](F)C7)nc5c3F)N(Cc3ccccc3)[C@H](CO)CO4)c12` [Example 81, 4-[(9R)-10-benzyl-4-fluoro-2-{[(2R,7aS)-2-fluorotetrahydro-1H-pyrrolizin-7a(5H)-yl]methoxy}-9-(hydroxymethyl)-9,10-dihydro-8H-7-oxa-1,3,6,10-tetraazacyclohepta[1,2,3-de]naphthalen-5-yl]-5-ethynyl-6-fluoronaphthalen-2-ol], the IC50 in the experiment with GP2D (KRAS G12D) (GP2d, 72 h) was more than 3000 nM; in the experiment with SW620 (KRAS G12V) (Homo sapiens, SW-620, 72 h) it was more than 3000 nM; with AGS (G12D) (72 h) it was more than 3000 nM.

As to `C#Cc1c(F)ccc2cc(O)cc(-c3nc4c5c(nc(OC[C@@]67CCCN6C[C@H](F)C7)nc5c3F)N3C[C@@H](O)CC[C@H]3CO4)c12` [Example 86, (8aS,11S)-5-(8-ethynyl-7-fluoro-3-hydroxynaphthalen-1-yl)-4-fluoro-2-{[(2R,7aS)-2-fluorotetrahydro-1H-pyrrolizin-7a(5H)-yl]methoxy}-8,8a,9,10,11,12-hexahydro-7-oxa-1,3,6,12a-tetraazabenzo[4,5]cyclohepta[1,2,3-de]naphthalen-11-7ol], the IC50 in the experiment with GP2D (KRAS G12D) (GP2d, 72 h) came to 9.1 nM; with SW620 (KRAS G12V) (Homo sapiens, SW-620, 72 h), 105 nM; in the experiment with AGS (G12D) (72 h), 28.3 nM.

On to `C#Cc1c(F)ccc2cc(O)cc(-c3nc4c5c(nc(OC[C@@]67CCCN6C[C@H](F)C7)nc5c3F)N3C[C@H](O)CC[C@@H]3CO4)c12` [Example 87, (8aR,11R)-5-(8-ethynyl-7-fluoro-3-hydroxynaphthalen-1-yl)-4-fluoro-2-{[(2R,7aS)-2-fluorotetrahydro-1H-pyrrolizin-7a(5H)-yl]methoxy}-8,8a,9,10,11,12-hexahydro-7-oxa-1,3,6,12a-tetraazabenzo[4,5]cyclohepta[1,2,3-de]naphthalen-11-ol], for which the IC50 in the experiment with GP2D (KRAS G12D) (GP2d, 72 h) stood at 64.5 nM; in the experiment on SW620 (KRAS G12V) (Homo sapiens, SW-620, 72 h) it was 686 nM; with AGS (G12D) (72 h), 132 nM.

For `C#Cc1c(F)ccc2cc(O)cc(-c3nc4c5c(nc(OC[C@@]67CCCN6C[C@H](F)C7)nc5c3F)N[C@@H](CC)CO4)c12` [Example 90, 4-[(9S)-9-ethyl-4-fluoro-2-{[(2R,7aS)-2-fluorotetrahydro-1H-pyrrolizin-7a(5H)-yl]methoxy}-9,10-dihydro-8H-7-oxa-1,3,6,10-tetraazacyclohepta[1,2,3-de]naphthalen-5-yl]-5-ethynyl-6-fluoronaphthalen-2-ol], the IC50 in the experiment with GP2D (KRAS G12D) (GP2d, 72 h) came out at 189 nM; with SW620 (KRAS G12V) (Homo sapiens, SW-620, 72 h), 1950 nM; with AGS (G12D) (72 h), 754 nM.

In the case of `C#Cc1c(F)ccc2cc(O)cc(-c3nc4c5c(nc(OC[C@@]67CCCN6C[C@H](F)C7)nc5c3F)N(C)[C@H](CO)CO4)c12` [Example 91, 5-ethynyl-6-fluoro-4-[(9R)-4-fluoro-2-{[(2R,7aS)-2-fluorotetrahydro-1H-pyrrolizin-7a(5H)-yl]methoxy}-9-(hydroxymethyl)-10-methyl-9,10-dihydro-8H-7-oxa-1,3,6,10-tetraazacyclohepta[1,2,3-de]naphthalen-5-yl]naphthalen-2-ol], the IC50 is 543 nM in the experiment with GP2D (KRAS G12D) (GP2d, 72 h); more than 3000 nM in the experiment with SW620 (KRAS G12V) (Homo sapiens, SW-620, 72 h); 923 nM with AGS (G12D) (72 h).

Consider `CCc1c(F)ccc2cc(O)cc(-c3nc4c5c(nc(OC[C@@]67CCCN6C[C@H](F)C7)nc5c3F)N(C)[C@H](CO)CO4)c12` [Example 92, 5-ethyl-6-fluoro-4-[(9R)-4-fluoro-2-{[(2R,7aS)-2-fluorotetrahydro-1H-pyrrolizin-7a(5H)-yl]methoxy}-9-(hydroxymethyl)-10-methyl-9,10-dihydro-8H-7-oxa-1,3,6,10-tetraazacyclohepta[1,2,3-de]naphthalen-5-yl]naphthalen-2-ol], for which the IC50 with GP2D (KRAS G12D) (GP2d, 72 h) came to 348 nM; with SW620 (KRAS G12V) (Homo sapiens, SW-620, 72 h), 579 nM; in the experiment on AGS (G12D) (72 h) it was 393 nM.

For the compound `C#Cc1c(F)ccc2cc(O)cc(-c3nc4c5c(nc(OC[C@@]67CCCN6C[C@H](F)C7)nc5c3F)N3C[C@@H](O)CC[C@@H]3CO4)c12` [Example 94, (8aR,11S)-5-(8-ethynyl-7-fluoro-3-hydroxynaphthalen-1-yl)-4-fluoro-2-{[(2R,7aS)-2-fluorotetrahydro-1H-pyrrolizin-7a(5H)-yl]methoxy}-8,8a,9,10,11,12-hexahydro-7-oxa-1,3,6,12a-tetraazabenzo[4,5]cyclohepta[1,2,3-de]naphthalen-11-ol], the IC50 is 1100 nM in the experiment on GP2D (KRAS G12D) (GP2d, 72 h); more than 3000 nM in the experiment on SW620 (KRAS G12V) (Homo sapiens, SW-620, 72 h); more than 3000 nM in the experiment on AGS (G12D) (72 h).

On to `C#Cc1c(F)ccc2cc(O)cc(-c3nc4c5c(nc(OC[C@@]67CCCN6C[C@H](F)C7)nc5c3F)NC3(CC3)CO4)c12` [Example 95, 5-ethynyl-6-fluoro-4-(4′-fluoro-2′-{[(2R,7aS)-2-fluorotetrahydro-1H-pyrrolizin-7a(5H)-yl]methoxy}-8′H,10′H-spiro[cyclopropane-1,9′-[7]oxa[1,3,6,10]tetraazacyclohepta[1,2,3-de]naphthalen]-5′-yl)naphthalen-2-ol], for which the IC50 in the experiment with GP2D (KRAS G12D) (GP2d, 72 h) was 993 nM; in the experiment on SW620 (KRAS G12V) (Homo sapiens, SW-620, 72 h) it was more than 3000 nM; in the experiment with AGS (G12D) (72 h), more than 3000 nM.

For `C#Cc1c(F)ccc2cc(O)cc(-c3nc4c5c(nc(OC[C@@]67CCCN6C[C@H](O)C7)nc5c3F)N3CCCC[C@H]3CO4)c12` [Example 97, (2R,7aS)-7a-({[(8aS)-5-(8-ethynyl-7-fluoro-3-hydroxynaphthalen-1-yl)-4-fluoro-8,8a,9,10,11,12-hexahydro-7-oxa-1,3,6,12a-tetraazabenzo[4,5]cyclohepta[1,2,3-de]naphthalen-2-yl]oxy}methyl)hexahydro-1H-pyrrolizin-2-ol], the IC50 with GP2D (KRAS G12D) (GP2d, 72 h) was 916 nM; with SW620 (KRAS G12V) (Homo sapiens, SW-620, 72 h), 1180 nM; in the experiment with AGS (G12D) (72 h), 385 nM.

`CCc1c(F)ccc2cc(O)cc(-c3nc4c5c(nc(OC[C@@]67CCCN6C[C@H](F)C7)nc5c3F)N[C@H](CO)CO4)c12` [Example 100, 5-ethyl-6-fluoro-4-[(9R)-4-fluoro-2-{[(2R,7aS)-2-fluorotetrahydro-1H-pyrrolizin-7a(5H)-yl]methoxy}-9-(hydroxymethyl)-9,10-dihydro-8H-7-oxa-1,3,6,10-tetraazacyclohepta[1,2,3-de]naphthalen-5-yl]naphthalen-2-ol]: the IC50 in the experiment on GP2D (KRAS G12D) (GP2d, 72 h) was more than 3000 nM; in the experiment on SW620 (KRAS G12V) (Homo sapiens, SW-620, 72 h), more than 3000 nM; in the experiment on AGS (G12D) (72 h), more than 3000 nM.

On to `C#Cc1c(F)ccc2cc(O)cc(-c3nc4c5c(nc(OC[C@@]67CCCN6C[C@@H](O)C7)nc5c3F)N3CCCC[C@H]3CO4)c12` [Example 101, (2S,7aS)-7a-({[(8aS)-5-(8-ethynyl-7-fluoro-3-hydroxynaphthalen-1-yl)-4-fluoro-8,8a,9,10,11,12-hexahydro-7-oxa-1,3,6,12a-tetraazabenzo[4,5]cyclohepta[1,2,3-de]naphthalen-2-yl]oxy}methyl)hexahydro-1H-pyrrolizin-2-ol], for which the IC50 with GP2D (KRAS G12D) (GP2d, 72 h) is 880 nM; in the experiment with SW620 (KRAS G12V) (Homo sapiens, SW-620, 72 h), more than 3000 nM; with AGS (G12D) (72 h), more than 3000 nM.

Consider `C#Cc1c(F)ccc2cc(O)cc(-c3nc4c5c(nc(OC[C@@]67CCCN6C[C@H](F)C7)nc5c3F)N[C@H]3CCC[C@H]3O4)c12` [Example 102, 5-ethynyl-6-fluoro-4-[(7aR,10aS)-4-fluoro-2-{[(2R,7aS)-2-fluorotetrahydro-1H-pyrrolizin-7a(5H)-yl]methoxy}-7a,8,9,10,10a,11-hexahydro-7-oxa-1,3,6,11-tetraazanaphtho[1,8-fg]azulen-5-yl]naphthalen-2-ol], for which the IC50 with GP2D (KRAS G12D) (GP2d, 72 h) is more than 3000 nM; in the experiment on SW620 (KRAS G12V) (Homo sapiens, SW-620, 72 h) it was more than 3000 nM; in the experiment with AGS (G12D) (72 h), more than 3000 nM.
